This passage reports IC50 results from patent publication US20260226034A1 (The Rockefeller University, priority 2023, published 2026).

This test deals with NSP14 (Severe acute respiratory syndrome coronavirus 2, UniProt P0DTD1). Description: NSP14 MTase inhibition assay at 37° C. (MTase-Glo SAH detection). It is filed as biochemical, SARS-CoV-2. The settings on record: 0.3 nM NSP14, 2.5 μM SAM, 2.5 μM GpppA RNA, read-out: Nsp14 Mtase Inh. IC50. Here is the method:
NSP14 MTase assay at 37° C. (0.3 nM NSP14 as final enzyme concentration)
The NSP14 MTase assay at 37° C. is carried out in 384-well flat bottom polystyrene microplates (Greiner, 781075). Per well, 10 μl of 1×NSP14 reaction buffer (50 mM Tris-HCl, pH 7.5, 6 mM KCl, 1.25 mM MgCl2, 1 mM DTT, and 0.01% Tween-20) are dispensed in columns 1-23 using a Thermo Multidrop Combi dispenser (Thermo Scientific). 0.1 μl of serially diluted compounds in DMSO are dispensed into columns 1-22 of the assay microplates with a Janus 384 MDT NanoHead (PerkinElmer). In wells of column 23, which serve as negative controls, no compounds are added.
The NSP14 reaction is started by adding 4 μl of a 4× substrate solution containing S-adenosyl methionine (SAM, 10 μM) and GpppA RNA (10 μM) prepared in 1×NSP14 reaction buffer. Any addition of reagents is followed by a 30 second centrifugation at 500×g to ensure that all liquid was collected at the bottom of the well. The final concentrations of NSP14, SAM, and GpppA RNA are 0.3 nM, 2.5 μM, and 2.5 μM, respectively. The final reaction volume is 16 μl. Plates are sealed and incubated for 45 min at 37° C.
For SAH detection, 1 μl 5× MTase-Glo™ Reagent (Promega) is added to each well, plates are mixed for 1-2 minutes and incubated at room temperature for 30 minutes. 5 μl of room-temperature MTase-Glo™ Detection Solution (Promega) is added to each well, plates are mixed for 1-2 minutes and incubated at room temperature for 30 minutes. Luminescence signals of each well are recorded in relative light units (RLUs) using a Biotek Synergy Neo plate reader (BioTek, Winooski, VT). The SAH production is normalized against the positive control (PK, column 24) and negative control (NK, column 23) as follows: normalized % inhibition=100×(RLUsample-RLUaverageNK)/(RLUaveragePK-RLUaverageNK).

Like-named read-outs stand apart in the source and are kept apart here.

Broadly, the IC50 is the midpoint of a concentration-inhibition curve.

In the case of `Cc1c(S(=O)(=O)c2ccccc2)cc(C(=O)NCc2cccc3cnn(C)c23)n1C` [A.16], under “45 min at 37° C.”, the IC50 was found to be 15 nM. As to `Cc1c(S(=O)(=O)c2cc(F)c3[nH]nc(F)c3c2)cc(C(=O)NCc2c(F)ccc3cnn(C4CC4)c23)n1C` [B.99], the concentration for half-maximal inhibition (IC50) (37° C.) stood at 0.15 nM. As for `Cc1c(S(=O)(=O)c2ccc3[nH]ncc3c2)cc(C(=O)N[C@@H]2CCN(c3ccc(C#N)c(C#N)c3)C2)n1C` [A.108], the IC50 (45 min at 37° C.) is less than 0.15 nM. `Cc1c(S(=O)(=O)c2ccc(C(N)=O)cc2)cc(C(=O)NCc2cccc3cnn(C)c23)n1C` [A.21]: under “45 min at 37° C.”, the IC50 was determined as 53 nM. Consider `COCC1(NC(=O)c2cc(S(=O)(=O)c3ccc4[nH]ncc4c3)c(C)n2C)CCN(c2ncc(F)cn2)C1` (single isomer, unassigned) [A.115, 4-((1H-indazol-5-yl)sulfonyl)-N-(1-(5-fluoropyrimidin-2-yl)-3-(methoxymethyl)pyrrolidin-3-yl)-1,5-dimethyl-1H-pyrrole-2-carboxamide], for which the half-inhibitory concentration (IC50) (45 min at 37° C.) turned out to be 37 nM. For the molecule `Cc1c(S(=O)(=O)c2ccc3[nH]ncc3c2)cc(C(=O)NCc2cccc3ccc(=O)n(C)c23)n1C` [B.11], the IC50 (37° C.) is 2.1 nM.

`Cc1c(S(=O)(=O)c2ccc3c(cnn3C)c2)cc(C(=O)NCc2c(F)ccnc2N2CCC(C(=O)NS(C)(=O)=O)C2)n1C` (centres unmarked) [B.182]: where the note is “37° C.”, the IC50 was less than 0.15 nM. As for `COCC1(NC(=O)c2cc(S(=O)(=O)c3ccc4[nH]ncc4c3)c(C)n2C)CCN(c2ncc(F)cn2)C1` (single isomer, unassigned) [A.114, 4-((1H-indazol-5-yl)sulfonyl)-N-(1-(5-fluoropyrimidin-2-yl)-3-(methoxymethyl)pyrrolidin-3-yl)-1,5-dimethyl-1H-pyrrole-2-carboxamide], under “45 min at 37° C.”, the IC50 was found to be 0.87 nM. On to `Cc1c(S(=O)(=O)c2cc(Cl)cc(C#N)c2)cc(C(=O)NCc2c(Cl)cnn2C)n1C` [B.193], for which, where the note is “37° C.”, the IC50 was determined as 6.4 nM. `Cc1c(S(=O)(=O)c2ccc3c(cnn3C)c2)cc(C(=O)NCc2cccnc2N2CCC(C(=O)O)C2)n1C` (centres unmarked) [B.47]: where the note is “37° C.”, the IC50 is 1.7 nM. Take `Cc1c(S(=O)(=O)c2cc(F)c3[nH]ncc3c2)cc(C(=O)NCc2ncccc2F)n1C` [B.58]: the half-maximal inhibitory concentration (IC50) (37° C.) was 2.3 nM.

For `Cc1c(S(=O)(=O)c2ccc3[nH]ncc3c2)cc(C(=O)N[C@@H]2CCN(c3ncc(C(F)(F)F)cn3)C2)n1C` [A.52], where the note is “45 min at 37° C.”, the IC50 turned out to be 0.3 nM. With `Cc1c(S(=O)(=O)c2ccc3[nH]ncc3c2)cc(C(=O)NCc2c(Cl)cnn2C)n1CC(F)F` [B.186], the IC50 (37° C.) stood at 1.1 nM. Regarding `Cc1c(S(=O)(=O)c2cccc(C#N)c2)cc(C(=O)NCc2cccc3cnn(C)c23)n1C` [A.6, 4-(3-cyanophenyl)sulfonyl-1,5-dimethyl-N-[(1-methylindazol-7-yl)methyl]pyrrole-2-carboxamide], the half-inhibitory concentration (IC50) (45 min at 37° C.) amounted to 1.7 nM. In the case of `Cc1c(S(=O)(=O)c2ccc3[nH]ncc3c2)cc(C(=O)NCc2cccc3nnn(C4CC4)c23)n1C` [B.66], the half-inhibitory concentration (IC50) (37° C.) was less than 0.15 nM.

Turning to `Cc1c(S(=O)(=O)c2ccc3[nH]ncc3c2)cc(C(=O)NCc2cccnc2C(F)(F)F)n1C` [B.53], for the setting “37° C.”, the 50% inhibitory concentration (IC50) came to 7 nM.

`O=C(NCc1c(F)ccc2ncn(C3CC3)c12)c1cc(S(=O)(=O)c2cc(F)c3[nH]ncc3c2)c2n1CCC2` [B.90]: under “37° C.”, the concentration for half-maximal inhibition (IC50) turned out to be 0.21 nM. For `Cc1c(S(=O)(=O)c2ccc3[nH]ncc3c2)cc(C(=O)NCc2cccc3c2N(C)C(=O)C3(F)F)n1C` [B.26], for the setting “37° C.”, the IC50 stood at 0.49 nM. Same read-out and setting: as for `Cc1c(S(=O)(=O)c2ccc3[nH]ncc3c2)cc(C(=O)NCc2c(F)ccc3c2CCCO3)n1C` [B.57], the figure is less than 0.15 nM. Same read-out and setting: as for `Cc1c(S(=O)(=O)c2ccc3[nH]ncc3c2)cc(C(=O)NCc2cccc3c(F)nn(C)c23)n1C` [B.44], the figure is 0.24 nM. On to `Cc1c(S(=O)(=O)c2ccc3[nH]ncc3c2)cc(C(=O)N[C@@H]2CCN(c3ccccc3OC(F)(F)F)C2)n1C` [A.85], for which the IC50 (45 min at 37° C.) amounted to 27 nM. As for `Cc1c(S(=O)(=O)c2ccc3[nH]ncc3c2)cc(C(=O)N[C@@H]2CCN(c3cnccc3C#N)C2)n1C` [A.95], where the note is “45 min at 37° C.”, the IC50 was less than 0.15 nM.

Turning to `Cc1c(S(=O)(=O)c2ccc3[nH]ncc3c2)cc(C(=O)NCc2c(F)ccc3c2N(C)C(=O)C3(F)F)n1C` [B.74], the IC50 (37° C.) worked out at 0.5 nM.
